Each structure is given as a SMILES string.

Experimental findings from ChEMBL document CHEMBL1133240, “Michael adducts of ascorbic acid as inhibitors of protein phosphatase 2A and inducers of apoptosis” (Bioorg Med Chem Lett, 2000) are described below.

Data set [1] in a line: Compound was evaluated for inhibitory effect against casein dephosphorylation (casein is a substrate of PP-2A) by a HIT cell extract relative to cantharidic acid (100 uM). The format is functional, cell-based, Homo sapiens.
Data set [2] in a line: Lethal dose was evaluated in HIT 100R cells. The format is toxicity, cell-based. The following applies: human, read-out: LC50 (the source's name).
A short description of data set [3]: Lethal dose was evaluated in parental HIT cells. The format is toxicity, cell-based. To be noted: read-out: LC50 (the source's name).
The test system of data set [4] is HIT. Nature of the data set: Compound was evaluated for inhibitory effect against casein dephosphorylation (casein is a substrate of PP-2A) by a HIT cell extract at 1000 uM; Some inhibition. The class given is functional, cell-based. The following applies: Homo sapiens.
Data set [5] has as its system HIT. Nature of the data set: Inhibitory concentration against casein dephosphorylation (casein is a substrate of PP-2A) by a HIT cell extract. The following applies: Homo sapiens. The class given is functional, cell-free.
The nature of data set [6]: Compound was evaluated for inhibitory effect against casein dephosphorylation (casein is a substrate of PP-2A) by a HIT cell extract with Okadaic acid (225 nM) or Cantharidic acid (100 uM). The class given is functional, cell-based, Homo sapiens.
The nature of data set [7]: Compound was evaluated for inhibitory effect against casein dephosphorylation (casein is a substrate of PP-2A) by a HIT cell extract at 100 uM. The format is functional. To be noted: Homo sapiens.

One may read the IC50 as the concentration needed to halve the response being measured. Read a low IC50 as inhibition by little substance. As to `O=C1O[C@@H]2[C@@H](O)CO[C@]2(O)[C@@]1(O)C(C[N+](=O)[O-])c1ccc(Cl)cc1` (some centres undefined), half-maximal inhibition in data set [1] (IC50) required 70 µM. Besides, the CC50 was 7.9 µM in data set [2] and 5.6 µM in data set [3].
As usually defined, the inhibition is how much of the control response was suppressed. A high value points to a response far below the control. Turning to `CCCCCCCCCCCCCCCC(=O)OC[C@@H](O)[C@H]1OC(=O)[C@]2(CCC(OC(C)C)O2)C1=O` (some centres undefined), the inhibition result in data set [4] is given as “Some inhibition”.
As for `C=C1[C@@H](O)[C@@H]2O[C@]3(CC[C@H](/C=C/[C@@H](C)[C@@H]4CC(C)=C[C@@]5(O[C@H](C[C@@](C)(O)C(=O)O)CC[C@H]5O)O4)O3)CC[C@H]2O[C@@H]1[C@@H](O)C[C@H](C)[C@H]1O[C@@]2(CCCCO2)CC[C@H]1C`, the Concentration in data set [5] is 225 nM.
Molecule `CCCCCCCCCCCCCCCC(=O)OC[C@@H](O)[C@H]1OC(=O)[C@]2(O)CCC(O)O[C@]12OC` (some centres undefined) had an IC50 in data set [6] of 175 µM. The CC50 was 126 µM in data set [2] and 100 µM in data set [3]. In data set [7], the inhibition at 100 µM came to 40%.
